The numbers were not newly measured in patent publication US20030136407A1, “Liquid composition to be vaporized for inhibiting increase in blood sugar level, vaporizer for the same and use of the same” (priority 1999, published 2003), which cites them from elsewhere.

This series deals with Ehrlich Ascites Tumour Cells. The following applies: in vitro; Chem. Pharm. Bull. 41(12) 2129-2131 (1993).

As to `C[C@H]1[C@H](C)CC[C@]2(C(=O)O)CC[C@]3(C)C(=CC[C@@H]4[C@@]5(C)C[C@@H](O)[C@H](O)C(C)(C)[C@@H]5CC[C@]43C)[C@H]12` [corosolic acid], the “activation of the mobility of grape sugar” value is on record as “activates the mobility of grape sugar”.
